Data taken from patent publication US7186743B2, “Substituted pyrazolyl compounds for the treatment of inflammation” (Pharmacia Corporation, priority 2001, dated 2007).
Structures can show the parent of a compound that is named as a salt. Where two headings read alike, the source gives them in different places. Each block holds one compound with its values, some of them ahead of it.

Target: T1, IKK2 (Homo sapiens, UniProt O14920)
T1 construct: made in house; host or cells: insect cells (baculovirus, pFastBac; SF9)
T1 sequence (O14920 1-756): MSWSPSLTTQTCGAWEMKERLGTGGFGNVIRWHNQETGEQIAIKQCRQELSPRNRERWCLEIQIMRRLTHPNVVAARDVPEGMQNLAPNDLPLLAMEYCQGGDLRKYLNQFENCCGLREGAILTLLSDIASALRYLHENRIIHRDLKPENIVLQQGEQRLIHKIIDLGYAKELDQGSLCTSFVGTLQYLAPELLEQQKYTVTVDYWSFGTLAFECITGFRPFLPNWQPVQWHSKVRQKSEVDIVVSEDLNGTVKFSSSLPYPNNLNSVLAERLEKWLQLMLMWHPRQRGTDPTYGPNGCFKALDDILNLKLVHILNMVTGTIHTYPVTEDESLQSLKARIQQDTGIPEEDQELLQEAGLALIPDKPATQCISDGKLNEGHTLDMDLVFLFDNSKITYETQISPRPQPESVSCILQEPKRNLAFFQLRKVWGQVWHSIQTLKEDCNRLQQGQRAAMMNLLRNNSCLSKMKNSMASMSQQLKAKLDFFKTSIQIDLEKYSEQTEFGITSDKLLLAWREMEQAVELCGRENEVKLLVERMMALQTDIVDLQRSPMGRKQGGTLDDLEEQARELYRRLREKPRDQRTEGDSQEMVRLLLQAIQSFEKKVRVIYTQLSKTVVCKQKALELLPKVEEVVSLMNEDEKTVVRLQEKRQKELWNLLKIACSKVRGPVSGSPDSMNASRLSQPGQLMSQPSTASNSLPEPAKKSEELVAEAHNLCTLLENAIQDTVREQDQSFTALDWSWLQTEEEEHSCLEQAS
Assay: IKKβ Resin Enzyme Assay (IKK2 resin)
Assay type: biochemical
How it was run: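 Radiometric test: [γ-33P]ATP incorporation into a biotinylated IκBα peptide, 30 min at 25° C, pH 7.6 Hepes with MgCl2/MnCl2 and 1 μM cold ATP. Reaction is quenched with Dowex resin and the supernatant is counted. Kinase is FLAG-purified homodimeric recombinant human IKK2 from insect cells.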

[1] = Table 18, read-out: IKK2 Resin IC50
[2] = Table 14, read-out: IKK2 Resin IC50
[3] = Table 3, read-out: IKK Resin IC50
[4] = Table 12, read-out: IKK2 Resin IC50
[5] = Table 4, read-out: IKK2 Resin IC50
[6] = Table 2, read-out: IKK Resin IC50
[7] = Table 6, read-out: IKK2 Resin IC 50

Structure (SMILES): NCCCS(=O)(=O)c1ccc(-n2nc(C(N)=O)c3c2-c2cc(NC(=O)c4ccccc4Cl)ccc2CC3)cc1 [Example 404, 1-{4-[(3-aminopropyl)sulfonyl]phenyl}-8-[(2-chlorobenzoyl)amino]-4,5-dihydro-1H-benzo[g]indazole-3-carboxamide hydrochloride]
IC50 [1]: ≤ 1000 nM

Structure (SMILES): NC(=O)c1nn(-c2ccc(S(=O)(=O)C(F)(F)F)cc2)c2c1CCc1ccc(NC(=O)c3cccnc3Cl)cc1-2 [Example 359, 8-{[(2-chloropyridin-3-yl)carbonyl]amino}-1-{4-[(trifluoromethyl)sulfonyl]phenyl}-4,5-dihydro-1H-benzo[g]indazole-3-carboxamide]
IC50 [2]: ≤ 1000 nM

Structure (SMILES): CC(C)S(=O)(=O)c1ccc(-n2nc(C(N)=O)c3c2-c2cc(NC(=O)c4ccccc4Cl)ccc2CC3)cc1 [Example 393, 8-[(2-chlorobenzoyl)amino]-1-[4-(isopropylsulfonyl)phenyl]-4,5-dihydro-1H-benzo[g]indazole-3-carboxamide]
IC50 [1]: ≤ 1000 nM

Structure (SMILES): CS(=O)(=O)c1ccc(-n2nc(C(N)=O)c3c2-c2cc(NC(=O)c4cc(Cl)ccc4[N+](=O)[O-])ccc2CC3)cc1 [Example 139, 8-[(5-chloro-2-nitrobenzoyl)amino]-1-[4-(methylsulfonyl)phenyl]-4,5-dihydro-1H-benzo[g]indazole-3-carboxamide]
IC50 [3]: ≤ 1000 nM

Structure (SMILES): CCNC(=O)/C=C/c1ccc(-n2nc(C(N)=O)c3c2-c2cc(NC(=O)c4ccccc4Cl)ccc2CC3)cc1 [Example 312, 8-[(2-chlorobenzoyl)amino]-1-{4-[(1E)-3-(ethylamino)-3-oxoprop-1-enyl]phenyl)-4,5-dihydro-1H-benzo[g]indazole-3-carboxamidee]
IC50 [4]: ≤ 1000 nM

Structure (SMILES): CS(=O)(=O)Nc1ccc(-n2nc(C(N)=O)c3c2-c2cc(NC(=O)c4ccccc4Cl)ccc2CC3)cc1 [Example 372, 8-[(2-chlorobenzoyl)amino]-1-{4-[(methylsulfonyl)amino]phenyl}-4,5-dihydro-1H-benzo[g]indazole-3-carboxamide]
IC50 (Table 15, read-out: IKK2 Resin IC50): ≤ 1000 nM

Structure (SMILES): NC(=O)c1nn(-c2cc(F)cc(F)c2)c2c1CCc1ccc(NC(=O)c3ccncc3Cl)cc1-2 [Example 355, 8-[(3-chloroisonicotinoyl)amino]-1-(3,5-difluorophenyl)-4,5-dihydro-1H-benzo[g]indazole-3-carboxamide]
IC50 [2]: ≤ 1000 nM

Structure (SMILES): NC(=O)c1nn(-c2ccc3c(c2)OCO3)c2c1CCc1ccc(NC(=O)c3ccccc3Br)cc1-2 [Example 177, 1-(1,3-benzodioxol-5-yl)-8-[(2-bromobenzoyl)amino]-4,5-dihydro-1H-benzo[g]indazole-3-carboxamide]
IC50 [5]: ≤ 1000 nM

Structure (SMILES): NC(=O)c1nn(-c2ccc(F)c(Cl)c2)c2c1CCc1ccc(NC(=O)c3ccccc3Cl)cc1-2 [Example 356, 8-[(2-chlorobenzoyl)amino]-1-(3-chloro-4-fluorophenyl)-4,5-dihydro-1H-benzo[g]indazole-3-carboxamide]
IC50 [2]: ≤ 1000 nM

Structure (SMILES): COc1ccc(Cl)c(C(=O)Nc2ccc3c(c2)-c2c(c(C(N)=O)nn2-c2ccc4c(c2)OCO4)CC3)c1 [Example 178, 1-(1,3-benzodioxol-5-yl)-8-[(2-chloro-5-methoxybenzoyl)amino]-4,5-dihydro-1H-benzo[g]indazole-3-carboxamide]
IC50 [5]: ≤ 1000 nM

Structure (SMILES): CS(=O)(=O)c1ccc(-n2nc(C(N)=O)c3c2-c2cc(NC(=O)c4ccc(C#N)cc4)ccc2CC3)cc1 [Example 144, 8-[(4-cyanobenzoyl)amino]-1-[4-(methylsulfonyl)phenyl]-4,5-dihydro-1H-benzo[g]indazole-3-carboxaniide]
IC50 [3]: ≤ 1000 nM

Structure (SMILES): CS(=O)(=O)c1ccc(-n2nc(C(N)=O)c3c2-c2cc(NC(=O)c4cc(N)ccc4Cl)ccc2CC3)cc1 [Example 112, 8-[(5-amino-2-chlorobenzoyl)amino]-1-[4-(methylsulfonyl)phenyl]-4,5-dihydro-1H-benzo[g]indazole-3-carboxamidehydrochloride]
IC50 [6]: ≤ 1000 nM

Structure (SMILES): NC(=O)c1nn(-c2ccc(O)cc2)c2c1CCc1ccc(NC(=O)c3cccnc3Cl)cc1-2 [Example 263, 8-{[(2-chloropyridin-3-yl)carbonyl]amino}-1-(4-hydroxyphenyl)-4,5-dihydro-1H-benzo[g]indazole-3-carboxamide]
IC50 (Table 8, read-out: IKK2 Resin IC50): ≤ 1000 nM

IC50 [6]: ≤ 1000 nM
Structure (SMILES): CS(=O)(=O)c1ccc(-n2nc(C(N)=O)c3c2-c2cc(NC(=O)c4cc(N=[N+]=[N-])ccc4[N+](=O)[O-])ccc2CC3)cc1 [Example 121, 8-[(5-azido-2-nitrobenzoyl)amino]-1-[4-(methylsulfonyl)phenyl]-4,5-dihydro-1H-benzo[g]indazole-3-carboxamide]

Structure (SMILES): NC(=O)c1nn(-c2ccc3c(c2)OCO3)c2c1CCc1ccc(NC(=O)c3ccccc3[N+](=O)[O-])cc1-2 [Example 192, 1-(1,3-benzodioxol-5-yl)-8-[(2-nitrobenzoyl)amino]-4,5-dihydro-1H-benzo[g]indazole-3-carboxamide]
IC50 [5]: ≤ 1000 nM

Structure (SMILES): NC(=O)c1nn(-c2ccc(F)cc2)c2c1CCc1ccc(NC(=O)c3cccnc3Cl)cc1-2 [Example 225, 8-{[(2-chloropyridin-3-yl)carbonyl]amino}-1-(4-fluorophenyl)-4,5-dihydro-1H-benzo[g]indazole-3-carboxamide]
IC50 [7]: ≤ 1000 nM

Structure (SMILES): NC(=O)c1nn(-c2ccc(/C=C/C(=O)NCc3ccco3)cc2)c2c1CCc1ccc(NC(=O)c3ccccc3Cl)cc1-2 [Example 310, 8-[(2-chlorobenzoyl)amino]-1-(4-{(1E)-3-[(2-furylmethyl)amino]-3-oxoprop-1-enyl}phenyl)-4,5-dihydro-1H-benzo[g]indazole-3-carboxamide]
IC50 [4]: ≤ 1000 nM

Structure (SMILES): COc1ccc([N+](=O)[O-])c(C(=O)Nc2ccc3c(c2)-c2c(c(C(N)=O)nn2-c2ccc(S(C)(=O)=O)cc2)CC3)c1 [Example 147, 8-[(5-methoxy-2-nitrobenzoyl)amino]-1-[4-(methylsulfonyl)phenyl]-4,5-dihydro-1H-benzo[g]indazole-3-carboxamide]
IC50 [3]: ≤ 1000 nM

Structure (SMILES): CN(C)S(=O)(=O)c1ccc(-n2nc(C(N)=O)c3c2-c2cc(NC(=O)c4ccccc4Cl)ccc2CC3)cc1 [Example 50, 8-[(2-chlorobenzoyl)amino]-1-{4-[(dimethylamino)sulfonyl]phenyl}-4,5-dihydro-1H-benzo[g]indazole-3-carboxamide]
IC50 (Table 1, read-out: IKK2-resin): ≤ 1000 nM

Structure (SMILES): CS(=O)(=O)c1ccc(-n2nc(C(N)=O)c3c2-c2cc(NC(=O)c4cc(Cl)ccc4Cl)ccc2CC3)cc1 [Example 108, 8-[(2,5-dichlorobenzoyl)amino]-1-[4-(methylsulfonyl)phenyl]-4,5-dihydro-1H-benzo[g]indazole-3-carboxamide]
IC50 [6]: ≤ 1000 nM

Structure (SMILES): NC(=O)c1nn(-c2ccc(F)cc2)c2c1CCc1ccc(NC(=O)c3cc(N4CCNCC4)ncc3Cl)cc1-2 [Example 253, 8-[(5-chloro-2-piperazin-1-ylisonicotinoyl)amino]-1-(4-fluorophenyl)-4,5-dihydro-1H-benzo[g]indazole-3-carboxamide]
IC50 (Table 7, read-out: IKK2 Resin IC50): ≤ 1000 nM

Structure (SMILES): NC(=O)c1nn(-c2ccc3c(c2)OCO3)c2c1CCc1ccc(NC(=O)c3cccc(Cl)c3Cl)cc1-2 [Example 194, 1-(1,3-benzodioxol-5-yl)-8-[(2,3-dichlorobenzoyl)amino]-4,5-dihydro-1H-benzo[g]indazole-3-carboxamide]
IC50 [5]: ≤ 1000 nM

Structure (SMILES): NC(=O)c1nn(-c2ccc(F)cc2F)c2c1CCc1ccc(NC(=O)c3ccccc3Cl)cc1-2 [Example 353, 8-[(2-chlorobenzoyl)amino]-1-(2,4-difluorophenyl)-4,5-dihydro-1H-benzo[g]indazole-3-carboxamide]
IC50 [2]: ≤ 1000 nM

Structure (SMILES): Cc1ccccc1C(=O)Nc1ccc2c(c1)-c1c(c(C(N)=O)nn1-c1ccc(F)cc1)CC2 [Example 240, 1-(4-fluorophenyl)-8-[(2-methylbenzoyl)amino]-4,5-benzo[g]indazole-3-dihydro-1H-carboxamide]
IC50 [7]: ≤ 1000 nM

Structure (SMILES): NC(=O)c1nn(-c2ccc(F)cc2)c2c1CCc1ccc(NC(=O)c3cccc([N+](=O)[O-])c3Cl)cc1-2 [Example 241, 8-[(2-chloro-3-nitrobenzoyl)amino]-1-(4-fluorophenyl)-4,5-dihydro-1H-benzo[g]indazole-3-carboxamide]
IC50 [7]: ≤ 1000 nM

Structure (SMILES): CN(C)c1ccc(Cl)c(C(=O)Nc2ccc3c(c2)-c2c(c(C(N)=O)nn2-c2ccc(F)cc2)CC3)c1 [Example 237, 8-{[2-chloro-5-(dimethylamino)benzoyl]amino}-1-(4-fluorophenyl)-4,5-dihydro-1H-benzo[g]indazole-3-carboxamide]
IC50 [7]: ≤ 1000 nM

Structure (SMILES): CS(=O)(=O)c1ccc(-n2nc(C(N)=O)c3c2-c2cc(NC(=O)c4ccccc4[N+](=O)[O-])ccc2CC3)cc1 [Example 102, 1-[4-(methylsulfonyl)phenyl]-8-[(2-nitrobenzoyl)amino]-4,5-dihydro-1H-benzo[g]indazole-3-carboxamide]
IC50 [6]: ≤ 1000 nM
